The results in this text go back to PMC4569848 (Nature Communications, 2015).

Entries after “also recorded” stand apart in the source; their conditions may differ. No end group written: not given here. *: point of attachment. sulfate = O=S(=O)(O)*

Common to all, as to format: cell-based
The test system of assay [1] is CCKAR. Nature of the assay: Co-IP β-arrestin-1/SRC downstream of CCKAR. The following applies: HEK293, 2 μM CCK-8s, 15 min. Here is the method:
(§1) Figure 8 Phospho-pattern-selective mechanisms of specific arrestin functions are common for at least a subset of GPCRs. (a) The phospho-binding pattern of β-arrestin-1 determines selective arrestin functions downstream of β2AR in cells. HEK293 cells were co-transfected with Flag-β2AR and wild-type HA-β-arrestin-1 or specific phosphate-binding site mutants (R25A for site 4 and R7A for site 5), then stimulated with 10 μM isoproterenol (ISO) for 15 min. The β-arrestin-1 was immunoprecipitated by HA-antibody-conjugated agarose and the formation of the β-arrestin-1/clathrin or β-arrestin-1/SRC was detected by specific clathrin or SRC antibodies. […] (b,c) The phospho-binding pattern of β-arrestin-1 determines selective arrestin interaction with clathrin or SRC downstream of somatostatin receptor 2 (SSTR2, Fig. 4c) and cholecystokinin A receptor (CCKAR, Fig. 4d). […]
(§2) To examine the effects of β-arrestin-1 mutants on ISO, CCK-8s or somatostatin induced clathrin/β-arrestin-1 or SRC/β-arrestin-1 complex formation downstream of β2AR, CCKAR and SSTR2; HEK293 cells were co-transfected with Flag-β2AR/HA-β-arrestin-1, Flag-CCKAR/HA-β-arrestin-1 or Flag-SSTR2/HA-β-arrestin-1, respectively. […] Immune complexes were analysed by western blotting with specific antibody towards clathrin or pSRC416, respectively.Representative western blots from at least three experiments are shown in Fig. 8.

Assay [2] deals with CCKAR. In words: Co-IP β-arrestin-1/clathrin downstream of CCKAR. The conditions noted are these: HEK293, 2 μM CCK-8s. Here is the method:
as §1, §2

The test system of assay [3] is SSTR2. In words: Co-IP β-arrestin-1/SRC downstream of SSTR2. The following applies: HEK293, 1 μM somatostatin. Here is the method:
as §1, §2

Assay [4] deals with SSTR2. In words: Co-IP β-arrestin-1/clathrin downstream of SSTR2. The conditions noted are these: HEK293, 1 μM somatostatin. Here is the method: as §1, §2
Assay [5] concerns β2AR. In words: Co-IP β-arrestin-1/clathrin downstream of β2AR. The following applies: HEK293, 10 μM ISO, 15 min, β-arrestin-1 R25A (site 4) vs wild type.
Excerpt: (§3) (a) The phospho-binding pattern of β-arrestin-1 determines selective arrestin functions downstream of β2AR in cells. […] The β-arrestin-1 was immunoprecipitated by HA-antibody-conjugated agarose and the formation of the β-arrestin-1/clathrin or β-arrestin-1/SRC was detected by specific clathrin or SRC antibodies. […] (a–c) Representative western blottings from at least three experiments are shown on the left and the statistics from at least three independent experiments are shown on the right. *P<0.05, **P<0.01; the effects of mutants were compared with the wild type.
(§4) To examine the effects of β-arrestin-1 mutants on ISO, CCK-8s or somatostatin induced clathrin/β-arrestin-1 or SRC/β-arrestin-1 complex formation downstream of β2AR, CCKAR and SSTR2; HEK293 cells were co-transfected with Flag-β2AR/HA-β-arrestin-1, Flag-CCKAR/HA-β-arrestin-1 or Flag-SSTR2/HA-β-arrestin-1, respectively. Different HA-β-arrestin-1 mutations were used to detect the contribution of the phosphate-binding sites of β-arrestin-1 during the arrestin/clathrin or arrestin/SRC complex formatin. […] Immune complexes were analysed by western blotting with specific antibody towards clathrin or pSRC416, respectively.Representative western blots from at least three experiments are shown in Fig. 8.
For assay [6], the system named is β2AR.
Description: To examine the effects of β-arrestin-1 mutants on ISO-induced β2AR/β-arrestin-1 complex formation, the co-immunoprecipitation experiment was performed[61][62]. In detail, HEK293 cells were co-transfected with Flag-β2AR and β-arrestin-1-YFP mutants. Twenty-four hours after transfection, the cells were starved for 4 h and then stimulated with ISO (10 μM) for 10 min. The cell lysates were subjected to immunoprecipitation using anti-FLAG beads incubated overnight at 4 °C. Immune complexes were analysed by western blotting with specific antibodies. The associated β-arrestin 1-YFP was detected using an anti-YFP antibody.
In assay [7] the test system is β2AR. Nature of the assay: Intramolecular BRET of Luc-β-arrestin-1-YFP (arrestin conformational change). The following applies: HEK293 cells, 10 μM ISO, 10 min. A general note: BRET reads energy transfer from a luciferase to a nearby fluorophore.
Description: (a) Activation of β2-AR-induced conformational changes in β-arrestin-1 as measured using intramolecular BRET. Plasmids encoding a β-arrestin-1 BRET biosensor (Luc-β-arrestin-1-YFP) and Flag-β2-AR were transiently co-transfected in HEK293 cells. After starvation, the cells were stimulated with ISO (10 μM) for 10 min. The effects of GRK phosphorylation of β2-AR on ISO-induced β-arrestin-1 conformational change were probed using siRNA-mediated GRK knockdown.
The pcDNA3.0-Flag-β2AR (Flag-β2AR), β-arrestin-1-YFP, pcDNA3.1-Luc-β-arrestin-2-YFP and pCDNA3.1-Clathrin constructs were generous gifts from Dr Lefkowitz at Duke University[21][32]. […] To monitor the β-arrestin-1 conformational change, the BRET sensor for β-arrestin-1 (pcDNA3.1-Luc-β-arrestin-1-YFP) was created by in-Fusion of the β-arrestin-1-YFP plasmid with the pcDNA3.1-Luc-β-arrestin-2-YFP construct[57][58]. […] All of the constructs and mutations were verified by DNA sequencing.
HEK 293 cells were attained from ATCC and cultured at 37 °C and 5% CO2 in DMEM containing 10% (v/v) fetal bovine serum and penicillin–streptomycin (5,000 IU l^−1). GRK2 or GRK6 expression was silenced in HEK 293 cells using a specific small interfering RNA (siRNA) duplex.
Assay [8] has as its system β2AR. In words: Co-IP β-arrestin-1/SRC downstream of β2AR. The following applies: HEK293, 10 μM ISO, 15 min, β-arrestin-1 R7A (site 5) vs wild type.
Excerpt: as §3, §4
Assay [9] deals with β2AR. In words: Western blot of SRC activation (phospho-SRC 416). The following applies: HEK293 cells, ISO 1, 5 and 15 min.
Description: (b) A representative western blotting is shown for the effects of knockdown of specific GRKs in β2-AR-mediated proto-oncogene tyrosine-protein kinase (SRC) activation. Left panel: HEK293 cells that were transiently transfected with Flag-β2-AR were stimulated with ISO for 1, 5 and 15 min. To examine the roles of GRK2 and GRK6 in β2-AR-mediated SRC activation, siRNAs that were selective for specific GRKs were transfected into the cells. A western blot representative of at least three independent experiments is shown on the left. Right panel: western blot signals of phospho-SRC 416 (a) were quantified using densitometry and are expressed as fold change versus basal level. […] (a,b) At least three independent experiments were performed. #P<0.05, ISO-stimulated cells are compared with unstimulated cells. *P<0.05; **P<0.01; ***P<0.005; GRK siRNA-treated cells are compared with control siRNA-treated cells.
GRK2 or GRK6 expression was silenced in HEK 293 cells using a specific small interfering RNA (siRNA) duplex. […]
To examine the roles of GRK2 and GRK6 in β2-AR-mediated SRC activation, selective siRNA towards specific GRK and Flag-β2AR plasmids were co-transfected into HEK-293 cells. […] Lysate protein concentrations were determined using the Bradford protein assay. […] SRC-416 phosphorylation was detected using a specific antibody.

For “CCK-8s: CCKAR agonist, 2 μM (DY(sulfate)MGWMDF; ends and bridges not checked; UniProt P06307 96-103, looked up)”, the β-arrestin-1/SRC recruitment result in the assay with CCKAR [1] is “only promoted β-arrestin-1/clathrin interaction”. In the assay on CCKAR [2] (15 min), the β-arrestin-1/clathrin interaction result was “only promoted β-arrestin-1/clathrin interaction”. Also, the “β-arrestin-1/clathrin interaction, R25A” value with CCKAR [2] (β-arrestin-1 R25A vs wild type) is given as “selectively disrupted β-arrestin-1/clathrin interaction”.

As for somatostatin, the β-arrestin-1/SRC recruitment result in the assay on SSTR2 [3] (15 min) is “promoted both clathrin and SRC recruitment for β-arrestin-1”. In the assay on SSTR2 [3] (β-arrestin-1 R7A vs wild type), the “β-arrestin-1/SRC complex formation, R7A” value was “impaired the β-arrestin-1/SRC complex formation”. Moreover, in the assay on SSTR2 [4] (15 min), the β-arrestin-1/clathrin recruitment result is “promoted both clathrin and SRC recruitment for β-arrestin-1”. The “β-arrestin-1/clathrin interaction, R25A” value with SSTR2 [4] (β-arrestin-1 R25A vs wild type) is “selectively disrupted β-arrestin-1/clathrin interaction”.

In the case of `CC(C)NCC(O)c1ccc(O)c(O)c1` (stereo not drawn) [ISO, isoproterenol], in the assay on β2AR [5], the “β-arrestin-1/clathrin complex formation, R25A” value is reported as “selectively impaired β-arrestin-1/clathrin interaction downstream of β2AR activation; also recorded: selectively disrupted the ISO-induced β-arrestin-1/clathrin complex formation”. Also, the “β2AR/β-arrestin-1 complex formation with β-arrestin-1 mutants” value in the assay on β2AR [6] is “All of the tested β-arrestin-1 mutants bound to β2AR after ISO stimulation”. In the assay on β2AR [7] (Flag-β2AR), the “BRET signal of Rluc-β-arrestin-1-YFP” value is “significantly increased the BRET signal”. Besides, the “BRET signal of Rluc-β-arrestin-1-YFP, GRK2 knockdown” value in the assay on β2AR [7] (GRK2 siRNA) is reported as “significantly reduced by the knockdown of either GRK2 or GRK6”. Moreover, in the assay with β2AR [7] (GRK6 siRNA), the “BRET signal of Rluc-β-arrestin-1-YFP, GRK6 knockdown” value is “significantly reduced by the knockdown of either GRK2 or GRK6”. Further, in the assay with β2AR [8], the “β-arrestin-1/SRC complex formation, R7A” value is recorded as “specifically eliminated ISO-induced β-arrestin-1/SRC association; also recorded: the ISO-induced β-arrestin-1/SRC complex formation”. For the same compound, the “SRC activation, role of GRK2 (knockdown)” value with β2AR [9] (GRK2 siRNA) is on record as “GRK2 is a negative regulator of β2-AR-induced SRC activation”. Further, in the assay with β2AR [9] (GRK6 siRNA), the “SRC activation, role of GRK6 (knockdown)” value is on record as “GRK6 is required for SRC activation downstream of β2-AR activation”.
